# The supplement of paper PMC11061612
# How the values were obtained:
# Test in all cases: Bliss excess, mean over the matrix (fraction); higher = more synergy
# [1] = system: KU812 (Chronic Myelogenous Leukemia)
# In short: (§1)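 Bliss excess equals the observed combination effect minus the expected value EA + EB − EA·EB, where EA and EB are the effects of each agent alone. Combination Emax is the second-highest inhibition within the matrix. Inhibition was scaled from CellTiter-Glo 2.0 luminescence, with 0 set by vehicle wells and 1 by blank wells, after 72 hours of two-drug dosing of cells plated in 1536-well plates.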
# [2] = system: COR-L279 (Small Cell Lung Carcinoma)
# In short: as §1
# [3] = system: NCI-H661 (Non-Small Cell Lung Carcinoma)
# In short: as §1
# [4] = system: NCI-H2731 (Mesothelioma)
# In short: as §1
# [5] = system: SUP-B15 (B-Lymphoblastic Leukemia)
# In short: as §1
# [6] = system: KYSE-270 (Esophageal Squamous Cell Carcinoma)
# In short: as §1
# [7] = system: PC-3 (Prostate Carcinoma)
# In short: as §1
# [8] = system: 8505C (Thyroid Gland Carcinoma)
# In short: as §1
# [9] = system: T-T (Esophageal Squamous Cell Carcinoma)
# In short: as §1
# [10] = system: ESO51 (Esophageal Adenocarcinoma)
# In short: as §1
# [11] = system: SU-DHL-5 (B-Cell Non-Hodgkin's Lymphoma)
# In short: as §1
# [12] = system: KY821 (Acute Myeloid Leukemia)
# In short: as §1
# [13] = system: RPMI-8226 (Plasma Cell Myeloma)
# In short: as §1
# [14] = system: NCI-H929 (Plasma Cell Myeloma)
# In short: as §1
# [15] = system: MN-60 (B-Lymphoblastic Leukemia)
# In short: as §1
# [16] = system: IM-95 (Gastric Carcinoma)
# In short: as §1
# [17] = system: MOG-G-CCM (Low Grade Glioma)
# In short: as §1
# [18] = system: KP-3 (Pancreatic Carcinoma)
# In short: as §1
# [19] = system: G-361 (Melanoma)
# In short: as §1
# [20] = system: NCI-H520 (Squamous Cell Lung Carcinoma)
# In short: as §1
Structure (SMILES),Bliss excess [1],Bliss excess [2],Bliss excess [3],Bliss excess [4],Bliss excess [5],Bliss excess [6],Bliss excess [7],Bliss excess [8],Bliss excess [9],Bliss excess [10],Bliss excess [11],Bliss excess [12],Bliss excess [13],Bliss excess [14],Bliss excess [15],Bliss excess [16],Bliss excess [17],Bliss excess [18],Bliss excess [19],Bliss excess [20]
"Cc1cc2ncnn2cc1Nc1ncc2c(n1)n(C1CCOCC1)c(=O)n2C [AZD7648] + O=C(c1cc(Cc2n[nH]c(=O)c3ccccc23)ccc1F)N1CCN(C(=O)C2CC2)CC1 [Olaparib] (first compound max 10 µM, 7x7, partner max 10 µM)",-0.0425,-0.0256,-0.0373,-0.069,0.0239,-0.034,-0.0263,-0.0202,-0.0642,-0.0056,0.0091,-0.0003,-0.038,-0.0192,-0.0115,-0.0303,-0.0269,-0.0409,-0.043,-0.0742
"COc1cccc(OCCCN)c1-c1cc(Nc2cnc(C#N)cn2)n[nH]1 [Prexasertib] + C=CCn1c(=O)c2cnc(Nc3ccc(N4CCN(C)CC4)cc3)nc2n1-c1cccc(C(C)(C)O)n1 [AZD1775] (first compound max 1 µM, partner max 1 µM)",-0.0401,0.0823,-0.0287,0.0338,0.0224,0.217,0.0469,0.0849,0.208,-0.0153,0.0644,0.063,0.0893,0.15,0.0534,0.0876,0.0748,-0.0138,0.0806,0.0421
"C[C@@H](c1ccc2nccn2c1)n1nnc2ncc(-c3cnn(C)c3)nc21 [Savolitinib] + CC1(C)CCC(CN2CCN(c3ccc(C(=O)NS(=O)(=O)c4ccc(NCC5CCOCC5)c([N+](=O)[O-])c4)c(Oc4cnc5[nH]ccc5c4)c3)CC2)=C(c2ccc(Cl)cc2)C1 [Venetoclax] (first compound max 1 µM, 7x7, partner max 1 µM)",-0.0303,-0.0059,-0.0651,-0.0423,-0.0465,-0.0463,-0.0806,-0.0664,0.011,-0.0334,-0.0977,-0.0139,-0.0456,0.0439,-0.0341,-0.0368,-0.0448,-0.0762,-0.0764,-0.0333
"Cc1cc2ncnn2cc1Nc1ncc2c(n1)n(C1CCOCC1)c(=O)n2C [AZD7648] + CN(C)CCCOc1ccc(-c2ccc3ncc4c(c3c2)n(C2CCOCC2)c(=O)n4C)cn1 [AZD0156] (first compound max 10 µM, 7x7, partner max 1 µM)",0.0197,-0.0044,0.0202,-0.0326,-0.0084,-0.0004,0.0109,-0.0003,0.0269,-0.0151,0.0272,0.0429,0.0171,-0.0727,-0.0405,0.0121,-0.0609,0.0074,0.0032,0.0833
"CN(C)CCCOc1ccc(-c2ccc3ncc4c(c3c2)n(C2CCOCC2)c(=O)n4C)cn1 [AZD0156] + C=CCn1c(=O)c2cnc(Nc3ccc(N4CCN(C)CC4)cc3)nc2n1-c1cccc(C(C)(C)O)n1 [AZD1775] (first compound max 1 µM, partner max 1 µM)",-0.0046,-0.0763,-0.0615,-0.0898,0.0282,0.0314,-0.0501,-0.0492,-0.0122,0.0363,-0.0016,-0.0505,-0.0017,-0.0464,0.0193,-0.0366,-0.0193,-0.0212,-0.0556,-0.0692
"CC1(C)CCC(CN2CCN(c3ccc(C(=O)NS(=O)(=O)c4ccc(NCC5CCOCC5)c([N+](=O)[O-])c4)c(Oc4cnc5[nH]ccc5c4)c3)CC2)=C(c2ccc(Cl)cc2)C1 [Venetoclax] + C1CN(CCC1(C(=O)N[C@@H](CCO)C2=CC=C(C=C2)Cl)N)C3=NC=NC4=C3C=CN4 [Capivasertib] (first compound max 1 µM, 7x7, partner max 3 µM)",-0.046,0.0055,-0.0218,-0.066,0.0077,0.0002,-0.046,-0.027,0.0155,-0.0379,-0.0236,0.0303,-0.0102,-0.0099,-0.0485,-0.0067,-0.0568,-0.0257,-0.0618,-0.0275
